Where two headings read alike, the source gives them in different places.
Test system: recombinant NL-Rluc virus (NL4-3 with Renilla Luciferase gene) in MT-2 cells
Assay: Inhibition of HIV replication (NL-Rluc luciferase reporter virus, MT-2 cells)
Type: cell-based, human immunodeficiency virus (HIV)
Settings: NL43, 120 h

## Cc1nc2c(Br)c(-c3ccccc3)nn2c(-c2cc(F)c3c(c2C)CCCO3)c1[C@H](OC(C)(C)C)C(=O)O [Example 138, (2S)-2-(3-Bromo-7-(8-fluoro-5-methylchroman-6-yl)-5-methyl-2-phenylpyrazolo[1,5-a]pyrimidin-6-yl)-2-(tert-butoxy)acetic acid]
read-out: Activity
  EC50: 0.1 to 1 µM

## Cc1nc2c(-c3cccc(Cl)c3)c(-c3ccccc3)nn2c(-c2cc(F)c3c(c2C)CCCO3)c1[C@H](OC(C)(C)C)C(=O)O [Example 140, (2S)-2-(tert-Butoxy)-2-(3-(3-chlorophenyl)-7-(8-fluoro-5-methylchroman-6-yl)-5-methyl-2-phenylpyrazolo[1,5-a]pyrimidin-6-yl)acetic acid]
read-out: Activity
  EC50: 0.1 to 1 µM
read-out: EC50 μM
  EC50: 1 µM

## Cc1nc2c(-c3cccc(OCc4ccc(F)cc4)c3)c(-c3ccccc3)nn2c(-c2cc(F)c3c(c2C)CCCO3)c1[C@H](OC(C)(C)C)C(=O)O [Example 141, (2S)-2-(tert-Butoxy)-2-(7-(8-fluoro-5-methylchroman-6-yl)-3-(3-((4-fluorobenzyl)oxy)phenyl)-5-methyl-2-phenylpyrazolo[1,5-a]pyrimidin-6-yl)acetic acid]
read-out: Activity
  EC50: > 1 µM
read-out: EC50 μM
  EC50: 3.3 µM

## Cc1nc2c(-c3ccc4c(cnn4C)c3)c(-c3ccccc3)nn2c(-c2cc(F)c3c(c2C)CCCO3)c1[C@H](OC(C)(C)C)C(=O)O [Example 142, (2S)-2-(tert-Butoxy)-2-(7-(8-fluoro-5-methylchroman-6-yl)-5-methyl-3-(1-methyl-1H-indazol-5-yl)-2-phenylpyrazolo[1,5-a]pyrimidin-6-yl)acetic acid]
read-out: Activity
  EC50: 0.1 to 1 µM

## Cc1nc2c(Cl)c(C)nn2c(-c2cc(F)c3c(c2C)CCCO3)c1C(OC(C)(C)C)C(=O)O (stereo not drawn) [Example 143, 2-(tert-Butoxy)-2-(3-chloro-7-(8-fluoro-5-methylchroman-6-yl)-2,5-dimethylpyrazolo[1,5-a]pyrimidin-6-yl)acetic acid]
read-out: Activity
  EC50: 0.1 to 1 µM

## Cc1nc2c(Cl)c(C)nn2c(-c2ccc3c(c2)CCCO3)c1C(OC(C)(C)C)C(=O)O (stereo not drawn) [Example 144, 2-(tert-Butoxy)2-(3-chloro-7-(chroman-6-yl)-2,5-dimethylpyrazolo[1,5-a]pyrimidin-6-yl)acetic acid]
read-out: Activity
  EC50: 0.1 to 1 µM

## Cc1nc2cc(-c3cccc(Cl)c3)nn2c(C(C)C)c1[C@H](OC(C)(C)C)C(=O)O [Example 145, (S)-2-(tert-Butoxy)-2-(2-(3-chlorophenyl)-7-isopropyl-5-methylpyrazolo[1,5-a]pyrimidin-6-yl)acetic acid]
read-out: Activity
  EC50: > 1 µM

## Cc1nc2cc(-c3cccc(Cl)c3)nn2c(CC(C)C)c1[C@H](OC(C)(C)C)C(=O)O [Example 146, (S)-2-(tert-Butoxy)-2-(2-(3-chlorophenyl)-7-isobutyl-5-methylpyrazolo[1,5-a]pyrimidin-6-yl)acetic acid]
read-out: Activity
  EC50: > 1 µM

## Cc1nc2cc(-c3cccc(Cl)c3)nn2c(-c2ccc(F)cc2)c1[C@H](OC(C)(C)C)C(=O)O [Example 147, (S)-2-(tert-Butoxy)-2-(2-(3-chlorophenyl)-7-(4-fluorophenyl)-5-methylpyrazolo[1,5-a]pyrimidin-6-yl)acetic acid]
read-out: Activity
  EC50: > 1 µM

## Cc1ccc(-c2c([C@H](OC(C)(C)C)C(=O)O)c(C)nc3cc(-c4cccc(Cl)c4)nn23)cc1 [Example 148, (S)-2-(tert-Butoxy)-2-(2-(3-chlorophenyl)-5-methyl-7-(p-tolyl)pyrazolo[1,5-a]pyrimidin-6-yl)acetic acid]
read-out: Activity
  EC50: 0.1 to 1 µM
read-out: EC50 μM
  EC50: 0.88 µM

## Cc1nc2cc(-c3cccc(Cl)c3)nn2c(C2CCCCC2)c1[C@H](OC(C)(C)C)C(=O)O [Example 149, (S)-2-(tert-Butoxy)-2-(2-(3-chlorophenyl)-7-cyclohexyl-5-methylpyrazolo[1,5-a]pyrimidin-6-yl)acetic acid]
read-out: Activity
  EC50: > 1 µM

## Cc1nc2cc(-c3ccc4c(c3)CCCC4)nn2c(-c2cc(F)c3c(c2C)CCCO3)c1[C@H](OC(C)(C)C)C(=O)O [Example 150, (2S)-2-(tert-Butoxy)-2-(7-(8-fluoro-5-methylchroman-6-yl)-5-methyl-2-(5,6,7,8-tetrahydronaphthalen-2-yl)pyrazolo[1,5-a]pyrimidin-6-yl)acetic acid]
read-out: Activity
  EC50: < 0.1 µM
